In patent US20090169521A1, “Vascularized cardiac tissue and methods of producing and using same” (Technion Research & Development Foundation Ltd., priority 2007, published 2009):
“Also recorded” adds a separate entry of the source.

Legend:
[1] = system: spontaneously contracting engineered cardiac tissue (gap junctions between hESC-CM); assay: Laser confocal Ca2+ imaging (Fluo-4) of impulse propagation; format: cell-based, human; settings: 1 mM, calcium imaging
Procedure: Laser scanning confocal Ca-imaging: Scaffolds were loaded with fluo-4 Ca AM (Molecular Probes) indicator to visualize free Ca^+2 levels. To this purpose, 5 mM stock solution of fluo-4 AM in DMSO was, diluted in standard hESC medium, at dilution of 1:1000 giving a final concentration of 5 μM. The non-ionic detergent Pluronic F-127 (Molecular Probes) was used to assist dispersion of the nonpolar fluo-4 AM ester in the aqueous media. Scaffolds were incubated for 45 minutes at 37° C. Following incubation the scaffolds were washed (×3) with indicator-free control tyrode solution removing any dye non-specifically associated with the cell surface. Afterwards the scaffolds were further incubated for 15 minutes allowing complete de-esterification of intracellular AM esters (according to manufacture's instructions). […]
Since the ultrastructural characterization clearly indicated the presence of gap junctions between adjacent hESC-CM (FIG. 7D), the present inventors sought to determine whether these formed gap junctions mediate impulse conduction between the hESC-CM and therefore allow synchronous contraction. […] The beating frequency of the spontaneously contracting cardiac tissue was evaluated following application of different pharmacological agents. […]

[2] = system: spontaneously contracting engineered cardiac tissue; assay: Beating frequency of engineered cardiac tissue after chronotropic agents; format: cell-based, human; settings: 1 μM, n=4; before application 1.6±0.3 Hz (isoproterenol), 1.7±0.2 Hz (carbamylcholine)
Procedure: Since the ultrastructural characterization clearly indicated the presence of gap junctions between adjacent hESC-CM (FIG. 7D), the present inventors sought to determine whether these formed gap junctions mediate impulse conduction between the hESC-CM and therefore allow synchronous contraction. The gap junction uncoupler, 1-heptanol (1 mM), was applied to the spontaneously contracting engineered cardiac tissue. […] The beating frequency of the spontaneously contracting cardiac tissue was evaluated following application of different pharmacological agents. Appropriate positive and negative chronotropic responses were observed following application of the β-agonist, isoproterenol (1 μM) and the muscarinic agonist—carbamylcholine (1 μM). Thus, isoproterenol increased the beating frequency of the engineered cardiac issue from 1.6±0.3 Hz to 2.1±0.3 Hz (p<0.05, n=4), while carbamylcholine decreased the beating frequency from 1.7±0.2 Hz to 1.4±0.1 Hz (p=0.055, n=4).

Row | SMILES | impulse propagation [1] | beating frequency after application of the agent [2] [Hz]
1 | CCCCCCCO [1-heptanol] | complete inhibition; also recorded: completely inhibited | 
2 | C[N+](C)(C)CCOC(N)=O.[Cl-] [carbamylcholine] |  | 1.4±0.1
3 | CC(C)NCC(O)c1ccc(O)c(O)c1 (stereo not drawn) [isoproterenol] |  | 2.1±0.3
